Like-named read-outs stand apart in the source and are kept apart here. Marks after values point to notes of the source that are not given here.
Assays:
HT1080 xenografts [1] = assay: BrdU labeling of cells from HT1080 xenografts grown in nude mice; format: in vivo, athymic nude mice; conditions: Day 1, 2, 3; Compound #10 10 mg/kg oral QD, doxorubicin 6 mg/kg IP, bevacizumab 5 mg/kg IP
Procedure: Experimental Design. HT1080 cells (5×10^6 cells/mouse) were implanted subcutaneously in male athymic nude mice.
The mice were sacrificed 3 hours later, and the tumors collected. A single cell suspension was prepared from the tumor cells. The cells were permeabilized and an antibody to BrdU was used to stain cells that had entered S phase during the labeling period. The proportion of cells actively synthesizing DNA was determined by cell sorting.

[2] = Phase 1 multiple-dose study in healthy volunteers: safety and tolerability; format: in vivo, human
From the text: (§1) Methods. The trial was a Phase 1, randomized, escalating multiple dose, single center study conducted in 2 stages.

[3] = test system: human VEGF121 and VEGF165; assay: HT1080 xenograft dose response: intratumoral and pathologic plasma human VEGF ELISA; format: in vivo
Procedure: Experimental Study Design. HT1080 cells (5×10^6 cells/mouse) were implanted subcutaneously in male athymic nude mice.
Tumor size was measured using calipers at periodic intervals during the study (data shown in Section 9.2.2). […] The study was ended after 18 days, when the vehicle treated tumors reached a mean volume of ˜1755 mm^3. […] Mice were sacrificed, and excised tumors were homogenized in buffer containing protease inhibitors. Both terminal intratumoral and pathologic plasma human VEGF levels were measured using an ELISA that recognizes human VEGF121 and VEGF165 (as described in Section 9.1.1.1). Intratumoral VEGF levels were normalized to the total tumor protein concentration, while pathologic plasma human VEGF levels were expressed in pg/mL of plasma.

HT1080 xenografts [4] = assay: HT1080 xenograft selectivity studies: tumor size; format: in vivo, athymic nude mice
Procedure: In all of these experiments, HT1080 cells (5×10^6 cells/mouse) were implanted subcutaneously in male athymic nude mice. When tumors had become established, mice were divided into groups (10 mice/group). […] Tumor size was measured by calipers at the beginning and end of treatment. At the completion of Compound administration, the mice were sacrificed, and excised tumors were assayed by ELISA for intratumoral VEGF or other angiogenic factors using methods analogous to those described in Section 9.1.1.1.

[5] = Oral pharmacokinetics in mice; format: in vivo
Procedure: The pharmacokinetic evaluations in mice were adjuncts to the primary pharmacodynamic xenograft studies. The evaluations in rats included toxicokinetic assessments in single-dose, 7-day, and 28-day toxicology studies as well as a mass-balance study after a single oral dose of ^14C-Compound #10. The evaluations in dogs included toxicokinetic assessments in 7-day and 28-day toxicology studies. In the studies performed, rodents were dosed once daily with Compound #10 formulated in vehicle and administered via oral gavage.

[6] = test system: soluble VEGF121 and VEGF165 isoforms; assay: VEGF inhibition EC50 by ELISA in the same human tumor cell lines (Table 25); format: cell-based
Procedure: Results. […] The conditioned media were collected and assayed by ELISA for soluble VEGF121 and VEGF165 isoforms (as described in Section 9.1.1.1); results were calculated as percentage inhibition relative to vehicle treated controls. EC50 values were calculated from the concentration response curves.

[7] = Phase 1 multiple-dose study in healthy volunteers: pharmacokinetics (Table 28); format: in vivo, human; conditions: for concentration at 24 h / Tmax: human, plasma, oral; for concentration at 24 h: read-out: C24 h
Procedure: as §1
Capsules contained 2 mg or 20 mg of active substance.
Capsules contained 20 mg or 25 mg of active substance.
Noncompartmental methods were used to compute Tmax, Cmax, and AUC. Dose proportionality and sex effect were evaluated using ANOVA on log transformed PK parameters using dose, sex, and dose by sex as fixed factors.

[8] = test system: bacterial reverse mutation; assay: Bacterial reverse mutation study; format: cell-based; conditions: with and without metabolic activation
Procedure: Genotoxicity was assessed in a battery of in vitro and in vivo studies that included a bacterial reverse mutation study, a chromosome aberration study in Chinese hamster ovary (CHO) cells, and a micronucleus study in rats by the oral route. The in vitro studies were performed in the presence and absence of an exogenous metabolic activation system.

SY5Y xenografts = assay: SY5Y neuroblastoma subcutaneous xenograft: tumor growth; format: in vivo
Procedure: Experimental Design. SY5Y cells are derived from a human neuroblastoma, a childhood tumor arising in neural crest cells. SY5Y cells (1×10^7 cells/mouse) were implanted subcutaneously in male athymic nude mice.
Tumor size was measured by calipers at periodic intervals. When the average tumor size in a group exceeded 2000 mm^3, the mice in the group were sacrificed and excised tumors were assayed for intratumoral VEGF concentration as described in Section 9.1.1.1.

[9] = all Compound #10 dose groups (0.3-10 mg/kg, oral, 18 days)
[10] = Stage 1, 0.3 mg/kg BID, Day 1, mean
[11] = Stage 1, 0.3 mg/kg BID, Day 7, mean
[12] = Stage 1, 0.6 mg/kg BID, Day 1, mean
[13] = Stage 1, 0.6 mg/kg BID, Day 7, mean
[14] = healthy volunteers, all dose levels
[15] = 50 mg/kg QD, 5 days per week (Table 18)

COc1ccc(C2c3[nH]c4ccc(Cl)cc4c3CCN2C(=O)Oc2ccc(Cl)cc2)cc1 (racemic) [Compound #10]
BrdU staining of tumor cells (proportion of cells in S phase) (HT1080 xenografts [1]): increased BrdU staining
Grade of treatment emergent adverse events and laboratory abnormalities ([2]; healthy volunteers, 7 days): generally Grade 1
QTc prolongation ([2]; healthy volunteers, 7 days): no meaningful QTc prolongation
Maximum tolerated dose ([2]; through the highest dose level tested ([…] TID)): No MTD was established
Reduction in tumor and pathologic plasma human VEGF concentrations ([3]; 0.3 mg/kg BID): partial reductions
Pathologic human VEGF levels in plasma [3, 9]: significantly suppressed
Pathologic human VEGF levels in tumors [3, 9]: significantly suppressed
Reduction in tumor and pathologic plasma human VEGF concentrations ([3]; dose levels of ≧1 mg/kg BID): essentially maximal
Final mean Compound #10-treated tumor size (HT1080 xenografts [4]; Study 1: 1 mg/kg oral BID, 28 days): 450 mm^3
Final mean Compound #10-treated tumor size (HT1080 xenografts [4]; Study 2: 5 mg/kg oral BID, 7 days): 595 mm^3
Final mean Compound #10-treated tumor size (HT1080 xenografts [4]; Study 3: 5 mg/kg oral BID, 10 days): 735 mm^3
Final mean Compound #10-treated tumor size (HT1080 xenografts [4]; Study 4: 5 mg/kg oral BID, 9 days): 953 mm^3
Final mean Compound #10-treated tumor size (HT1080 xenografts [4]; Study 5: 5/50 mg/kg oral BID, 15 days): 1922 mm^3
Final mean Compound #10-treated tumor size (HT1080 xenografts [4]; Study 6: 5 mg/kg oral QD, 21 days): 750 mm^3
Final mean Compound #10-treated tumor size (HT1080 xenografts [4]; Study 7: 10 mg/kg oral QD, 42 days): 1770 mm^3
Oral bioavailability [5]: orally bioavailable
concentration at 24 h ([5]; mouse, plasma, oral, 1-mg/kg dose level, Day 1, read-out: Plasma trough concentration at 24 hours): 100 to 150 ng/mL
EC50 ([6]; Homo sapiens, ASPC1, ASPC-1 (Pancreas), 48 hours): > 30000 nM
EC50 ([6]; Homo sapiens, HCT-116, HCT116 (Colorectal), 48 hours): 10 nM
EC50 ([6]; Homo sapiens, HT-1080, HT1080 (Fibrosarcoma), 48 hours): 10 nM
EC50 ([6]; Homo sapiens, PL45, PL-45, 48 hours): > 30000 nM
EC50 ([6]; Homo sapiens, HEK293 (Renal cell), 48 hours): 10 nM
EC50 ([6]; Homo sapiens, HPAF-2, 48 hours): > 30000 nM
EC50 ([6]; Homo sapiens, HeLa (Cervical), 48 hours): 2 nM
EC50 ([6]; Homo sapiens, NCI H460 (Lung), 48 hours): 10 nM
EC50 ([6]; Homo sapiens, U-87MG (Glioblastoma), 48 hours): > 30000 nM
EC50 ([6]; PC-3, 48 hours): > 30000 nM
AUC0-24 [7, 10]: 4310 ng·h/mL
Cmax (after PM dose) [7, 10]: 480 ng/mL
Dose-normalized AUC0-24 [7, 10]: 7.2 µg·h/mL/mg/kg
Dose-normalized Cmax [7, 10]: 0.79 µg/mL/mg/kg
Tmax (after PM dose) [7, 10]: 3.16 h
AUC0-24 [7, 11]: 8440 ng·h/mL
Cmax (after PM dose) [7, 11]: 590 ng/mL
Dose-normalized AUC0-24 [7, 11]: 14.1 µg·h/mL/mg/kg
Dose-normalized Cmax [7, 11]: 0.99 µg/mL/mg/kg
AUC0-24 [7, 12]: 10100 ng·h/mL
Cmax (after PM dose) [7, 12]: 970 ng/mL
Dose-normalized AUC0-24 [7, 12]: 8.4 µg·h/mL/mg/kg
Dose-normalized Cmax [7, 12]: 0.81 µg/mL/mg/kg
Tmax (after PM dose) [7, 12]: 3.17 h
AUC0-24 [7, 13]: 18600 ng·h/mL
Cmax (after PM dose) [7, 13]: 1160 ng/mL
Dose-normalized AUC0-24 [7, 13]: 15.5 µg·h/mL/mg/kg
Dose-normalized Cmax [7, 13]: 0.97 µg/mL/mg/kg
Dose-normalized AUC0-24 ([7]; Stage 1, […] BID, Day 1, mean): 7.5 µg·h/mL/mg/kg
Dose-normalized Cmax ([7]; Stage 1, […] BID, Day 1, mean): 0.82 µg/mL/mg/kg
Cmax (after PM dose) ([7]; Stage 1, […] BID, Day 7, mean): 2470 ng/mL
Dose-normalized AUC0-24 ([7]; Stage 1, […] BID, Day 7, mean): 13.7 µg·h/mL/mg/kg
Dose-normalized Cmax ([7]; Stage 1, […] BID, Day 7, mean): 1.03 µg/mL/mg/kg
Dose-normalized AUC0-24 ([7]; Stage 2, […] TID, Day 1, mean): 7.7 µg·h/mL/mg/kg
Dose-normalized Cmax ([7]; Stage 2, […] TID, Day 1, mean): 0.51 µg/mL/mg/kg
Tmax (after PM dose) ([7]; Stage 2, […] TID, Day 1, mean): 2.50 h
Cmax (after PM dose) ([7]; Stage 2, […] TID, Day 7, mean): 4650 ng/mL
Dose-normalized AUC0-24 ([7]; Stage 2, […] TID, Day 7, mean): 16.4 µg·h/mL/mg/kg
Dose-normalized Cmax ([7]; Stage 2, […] TID, Day 7, mean): 0.98 µg/mL/mg/kg
concentration at 24 h ([7]; both sexes, 0.3 mg/kg, Stage 1, 0.3 mg/kg BID, Day 1, mean): 94 ng/mL
concentration at 24 h ([7]; both sexes, 0.3 mg/kg, Stage 1, 0.3 mg/kg BID, Day 7, mean): 210 ng/mL
concentration at 24 h ([7]; both sexes, 0.6 mg/kg, Stage 1, 0.6 mg/kg BID, Day 1, mean): 260 ng/mL
concentration at 24 h ([7]; both sexes, 0.6 mg/kg, Stage 1, 0.6 mg/kg BID, Day 7, mean): 540 ng/mL
Tmax ([7]; both sexes, healthy volunteers, Stage 1 and Stage 2, read-out: Mean Tmax): ~3 h
Tmax ([7]; both, Stage 1, 1.2 mg/kg BID, Day 1, mean, read-out: Tmax (after PM dose)): 3 h
Oral bioavailability ([7]; healthy volunteers): orally bioavailable
Differences in Cmax or AUC0-24 between males and females ([7]; healthy volunteers, ANOVA): no significant differences
Accumulation (Day 1 to Day 7) when dosed continuously [7, 14]: ~2 fold
Target trough plasma concentration (~0.1 to […]) [7, 14]: achieved and maintained
Lag time until appearance in plasma ([7]; healthy volunteers, oral capsules): ~30 min
Genotoxic effects, bacterial reverse mutation [8]: no evidence of genotoxic effects
Mean % Inhibition of Tumor Size vs Vehicle at Day 17 (SY5Y xenografts; [15]): 73* %
Median Time to Tumor Size ≧1000 mm^3 (SY5Y xenografts; [15]): 35 days
Toxicity on observing the animals (SY5Y xenografts; SY5Y xenograft mice): no evidence of toxicity
